# Columns and labels:
# HT-1080 cells [1] = assay: Immunofluorescence staining of treated cells, quantification of membrane intensity; format: cell-based, human; conditions: 8 h
# HT-1080 cells [2] = assay: Nuclear shrinkage by immunofluorescence (DAPI nuclei, CellProfiler); format: cell-based, human; conditions: vs DMSO
# OCI-LY7 cells = assay: C11-BODIPY lipid ROS flow cytometry; format: cell-based; conditions: 5 μM PE, 19 h at 37° C.
# Description: 6 L of media (1% Pen-Strep 10% FBS and 89% RPMI with L-glutamine) containing 400 million OCI-LY7 (DSMZ Cat #ACC-688, RRID:CVCL_1881) cells/L were treated with 5 μM PE (piperazine erastin). Cells were incubated for 19 h at 37° C., then production of lipid ROS was confirmed using BODIPY-C11 by flow cytometry. Ferroptotic cells were pelleted in centrifuge at 1000 rpm for 10 min at 25° C. Cells were resuspended in 1 mL lysis buffer with a pan-protease inhibitor, lysed using a dounce homogenizer. 70% cell lysis was confirmed by microscope. Pellet containing the nuclear fraction and unlysed cells was obtained by centrifuge at 700×g for 10 min at 4° C. Supernatant was spun at 700×g for 10 min at 4° C. Supernatant was then transferred to a new tube and placed in centrifuge at 10,000×g for 45 min at 4° C. Pellet consisting of total membrane was resuspended in upper phase solution. Lower phase was added and mixture was incubated on ice for 5 min. Mixture was spun at 1000×g for 5 min at 4° C. […]
# Cells were resuspended in […] HBSS containing 2 μM C11-BODIPY (BODIPY 581/591 C11) (Thermo Fisher Scientific, D3861) and incubated at 37° C. for 15 min. […] Fluorescence intensity was measured on the FL1 channel with gating to record live cells only (gate constructed from DMSO treatment group). A minimum of 10,000 cells were analyzed per condition. […]
# HT-1080 cells [3] = assay: High-content analysis of nucleus area; format: cell-based, human; conditions: RSL3 group vs DMSO group
# Description: For the screening with five technical replicates, HT-1080 cells were washed with PBS, trypsinized and resuspended in cell culture medium. The cell suspension (2,000 cells in 50 μl per well) was dispensed into collagen (Sigma-Aldrich, St. Louis, Mass., USA) pre-coated 384-well plates (PerkinElmer 384-well CellCarrierUltra™). 24 h after seeding, medium was exchanged to medium containing 0.3 μM RSL3 (1 mM stock solution) dissolved in 100% dimethyl sulfoxide (DMSO) or DMSO alone. 50 μl medium with 0.3 μM RSL3/DMSO was added per well. The cells were then incubated (37° C.; 5% CO2) for 2.5 h prior to fixation and antibody staining. […] Finally, plates were recorded using the automated Operetta® microscope with the 20× high NA objective for high-resolution images (PerkinElmer, USA). For quantification, three images of each condition were recorded using three channels (Hoechst, Alexa488, TRITC). […] Quantification on cell number, cytoplasmic intensity, nucleus intensity and spot number per cell was performed using the Columbus Software (PerkinElmer, USA).
# Multiparametric image analysis was performed using Columbus Software 2.8.0 (PerkinElmer). […] In a next step we have calculated the morphology and Alexa488 fluorescence intensity in each cell region (nucleus and cytoplasm). […] Each spot was detected as a small region within the corresponding image by having a higher intensity than its surrounding area. […]
# TfR1 mRNA = assay: qPCR of TfR1 transcripts; format: cell-based, human; conditions: 8 h, HT-1080 cells
# Description: HT-1080 cells were seeded in 6-well plates at a density of 400 k cells/well and incubated overnight. The following day, IKE or RSL3 were diluted into wells from stock solutions and treated for indicated time periods. Following treatment, cells were rinsed in cold PBS, trypsinized, and pelleted in Eppendorf tubes. RNA was isolated from cell pellets using Qiagen's RNeasy extraction kit, following manufacturer's instructions (Qiagen). RNA quantity and quality was evaluated by a nanodrop spectrophotometer (Thermo Fisher Scientific). cDNA was generated from 2 μg of total RNA, which was then diluted ten-fold and used as a template in qPCR reactions on a Viia7 Real-Time system. Gene specific primers were used as follows: TfR1 FW: 5′ […] 3′ (SEQ ID No: 18); TFR1 RV: 5′ […] 3′ (SEQ ID No: 19); GAPDH FW: 5′ […] 3′ (SEQ ID No: 20); GAPDH RV: 5′ […] 3′ (SEQ ID No: 21).
# HT-1080 cells [4] = assay: Cell death after RSL3 incubation; format: cell-based, human; conditions: 1 μM, 4 h incubation
# HT-1080 cells [5] = assay: Machine-learning training image set, TfR1 membrane fluorescence intensity; format: cell-based, human; conditions: fixed at 10-20% cell death
# Description: Immunofluorescence (IF). HT-1080 cells were treated with 1 μM RSL3, 20 μM IKE, or 1 μM STS on poly-lysine-coated coverslips (Sigma Aldrich P4832) in 24-well plates. […] The cells were fixed and permeabilized with 4% PFA in PBS with 0.1% Triton X-100 (PBT), with 200 μL per well. The plates were covered with foil, and the cells were incubated and shaken at room temperature for 15-20 min. The PFA was disposed of safely, and the cells were washed with PBT three times. The cells were blocked with 5% normal goat serum (NGS) (ThermoFisher 50197Z) in PBT for 1 h at room temperature. The cells were then incubated with mouse 3F3 anti-Ferroptotic Membrane Antibody (3F3-FMA) at 1:500 dilution in PBT with 1% bovine serum albumin (BSA) and 5% NGS at 4° C. overnight. The cells were washed with PBT for 5 min three times. The cells were then incubated with goat anti-mouse IgG (H+L) Highly Cross-Adsorbed Secondary Antibody, Alexa Fluor 594 (Thermo Fisher Scientific Cat #A-11032, RRID:AB_2534091) at 1:200 dilution and FITC-phalloidin at 1:1000 dilution in PBT with 1% BSA for 1 h at room temperature. […]
# Automated image analysis. […] Nuclei were detected via the DAPI signal. […] In a next step, morphology/symmetry features, texture (SER features) and intensity properties of the DAPI, FITC and red channel were calculated for each cell region (nuclei, cytoplasm, and membrane). […]
compound,measurement,setting,value
"CC(C)(C)OO [tBuOOH, reference compound]",change of 3F3-FMA staining pattern caused by inducer,HT-1080 cells [1]; 100 μM,same changes of 3F3-FMA pattern were observed
"O=S(=O)(NC1CCCCC1)c1ccc2c(c1)C(=NO)c1cc(S(=O)(=O)NC3CCCCC3)ccc1-2 [FIN56, ferroptosis inducer 56, reference compound]",change of 3F3-FMA staining pattern caused by inducer,HT-1080 cells [1]; 10 μM,same changes of 3F3-FMA pattern were observed
same,nuclei shrank (mean nucleus area),"HT-1080 cells [2]; 10 μM, 8 h incubation",17%
"CC(C)Oc1ccc(CN2CCNCC2)cc1-n1c(CN2CCN(C(=O)COc3ccc(Cl)cc3)CC2)nc2ccccc2c1=O [PE, piperazine erastin]",lipid peroxides (C11-BODIPY fluorescence),OCI-LY7 cells,increase in lipid peroxides
"CC1(CCO)CC2(CCC(C(C)(C)C)CC2)OO1 (stereo not drawn) [FINO2, ferroptosis inducer endoperoxide, reference compound]",change of 3F3-FMA staining pattern caused by inducer,HT-1080 cells [1]; 15 μM,same changes of 3F3-FMA pattern were observed
same,nuclei shrank (mean nucleus area),"HT-1080 cells [2]; 15 μM, 8 h incubation",49%
"COC(=O)c1ccc([C@@H]2c3[nH]c4ccccc4c3C[C@@H](C(=O)OC)N2C(=O)CCl)cc1 [RSL3, (1S, 3R)-RSL3]",decrease of average nucleus area,HT-1080 cells [3],17%
same,level of TfR1 mRNAs,TfR1 mRNA; 1 μM,didn't increase
same,HT-1080 cells died,HT-1080 cells [4],30%
same,TfR1 membrane fluorescence intensity after treatment,HT-1080 cells [5]; 1 μM,significant increase
same,nuclei shrank (mean nucleus area),"HT-1080 cells [2]; 1 μM, 4 h incubation",27%
"CC(C)Oc1ccc(C(=O)Cn2ccnc2)cc1-n1c(CN2CCN(C(=O)COc3ccc(Cl)cc3)CC2)nc2ccccc2c1=O [IKE, imidazole ketone erastin]",level of TfR1 mRNAs,TfR1 mRNA; 10 μM,didn't increase
same,change of 3F3-FMA staining pattern caused by inducer,HT-1080 cells [1]; 10 μM,same changes of 3F3-FMA pattern were observed
same,TfR1 membrane fluorescence intensity after treatment,HT-1080 cells [5]; 20 μM,significant increase
same,nuclei shrank (mean nucleus area),"HT-1080 cells [2]; 10 μM, 8 h incubation",12%
